From the METLIN SMRT retention time set (Domingo-Almenara et al. 2019)

Test: gradient 5% acetonitrile 3 min, to 50% in 2 min, to 85% in 15 min, held 3 min, 100 µL/min
Settings: column: Zorbax Extend-C18 2.1 x 50 mm; eluents: water / acetonitrile, 0.1% formic acid
Outline: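 Data were gathered over 3 months by HPLC coupled to a quadrupole time-of-flight mass spectrometer, operated in positive and negative ionization mode. Mixtures of ~100 pure standards ran on a Zorbax Extend-C18 column (2.1 × 50 mm, 1.8 μm) at 100 μL/min, with water and acetonitrile each containing 0.1% formic acid and dead and dwell volumes of 40 μL and 900 μL. Retention time was read from adduct peaks picked by computer and checked manually.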

| RP-LC retention time [s] | SMILES |
| --- | --- |
| 737 | O=C1CC(C(F)(F)F)c2c(c(C(=O)O)cn2-c2ccccc2Cl)N1 (centres undefined) |
| 739 | Cc1ccc(NS(=O)(=O)c2cc(-c3[nH]ncc3C(=O)N(C)C)oc2C)c(C)c1 |
| 596 | CCCCC(=O)Nc1cc(C(=O)O)ccc1N(C)CCc1c(C)nn(C)c1C |
| 902 | Cc1c(Cl)cccc1NC(=O)NCCc1cn(CC(C)C)c2ncccc12 |
| 745 | Cc1c(-c2noc(-c3ccc4c(c3)OCO4)n2)nnn1-c1ccc(F)cc1 |
| 784 | Cc1cc(C)cc(N2CCn3c2nc2c3c(=O)n(CC(=O)O)c(=O)n2C)c1 |
| 584 | Cc1ccc2c(Nc3cc(F)ccc3F)c(C(=O)N3CCCC3)cnc2n1 |
| 673 | COc1ccc(Cl)cc1C(=O)NCc1c(C)nc2sc(C)nn12 |
| 937 | CCCCOc1ccc(CNC(=O)C2CCN(C(=O)c3cc4ccsc4[nH]3)CC2)cc1 |
| 783 | O=C(C1CCCN(c2ccc(-c3ccccc3)nn2)C1)N1CCN(c2ccccc2)CC1 (centres undefined) |
| 851 | CC(C)NC(=O)C1(c2ccc(NC(=O)C(C)C)cc2)CCCCC1 |
| 856 | CC(C)Cc1ccc(S(=O)(=O)N2CCC3(CC2)NCCN=C3NCc2ccccc2)cc1 |
| 966 | O=C1CCc2cc(S(=O)(=O)N3CCN(c4ccc(F)cc4)CC3)cc3c2N1CCC3 |
| 865 | O=C(Cc1ccsc1)N1CCC2(CC1)N=C(c1ccc(Cl)cc1)NO2 |
| 884 | CN(C)C(=O)c1csc(N2CCN(c3ccccc3F)CC2)n1 |
| 568 | CNC(=O)[C@@H]1CN(C(=O)CCc2c(C)noc2C)C[C@H]1c1n[nH]c(C)n1 |
| 719 | CCc1cc(=O)n(CC(=O)Nc2ccc(OC)c(F)c2)c(N2CCOCC2)n1 |
| 673 | CCn1nccc1C(=O)N1C[C@@H]2C[C@H](NC(=O)c3ccccc3)[C@H]1C2 |
| 768 | CCOC(=O)Cc1c(C)c2cc(C(=O)c3ccccc3)c(O)cc2oc1=O |
| 1090 | Cc1nc(-c2csc(S(=O)(=O)N3CCC(C(=O)Nc4ccc(C(C)C)cc4)CC3)c2)no1 |
| 853 | CCOCCCNC(=O)c1cc2c(n(-c3ccc(C(F)(F)F)cc3)c1=O)CCCC2=O |
| 909 | Cc1ccc(N2CCC(NC(=O)Nc3ccccc3Cl)C2=O)cc1C (centres undefined) |

| RP-LC retention time [s] | SMILES |
| --- | --- |
| 618 | Cn1cc(-c2cc3n(n2)CCCN3C(=O)CCC(=O)NCCN2CCOCC2)c2ccccc21 |
| 1020 | Cc1cc(C)cc(-n2ccnc(NC(=O)Nc3cccc(F)c3)c2=O)c1 |
| 585 | COc1ccc(NC(=O)C2CCN(c3cncnc3N3CCN(C)CC3)CC2)cc1Cl |
| 726 | COC(=O)c1ncn2c1C(=O)N(c1ccc(C)cc1C)C(C)(C(=O)NCc1ccccc1)C2 (centres undefined) |
| 792 | CO/N=C(\C(=O)N[C@@H]1C(=O)N2C(C(=O)OCOC(=O)C(C)(C)C)=C(/C=C\c3scnc3C)CS[C@H]12)c1csc(N)n1 |
| 586 | O=C(C1CCN(c2ncnc3c2sc2ncccc23)CC1)N1CCN(c2ccccn2)CC1 |
| 643 | COCCC(=O)NCCC1CCN(C(=O)Nc2ccc(F)cc2F)CC1 |
| 843 | CC1CCN(C(=O)C2CCc3sc(C(=O)N4CCCC4)cc3C2)CC1 (centres undefined) |
| 898 | Cc1nc(-c2ccccc2Cl)sc1C(=O)N[C@@H](Cc1c[nH]c2ccccc12)C(=O)O |
| 958 | CCOc1ccccc1-n1ccn(Cc2nc(-c3ccc(C)c(C)c3)no2)c(=O)c1=O |
| 742 | COCCCNC(=O)NCc1ccc2c(c1)N(C(=O)c1ccccc1)CC2 |
| 893 | Cc1nc(Cn2cccc2C(=O)Nc2ccc(Cl)cc2F)no1 |
| 694 | CCc1nc2c(c(=O)n1CC(=O)NCc1ccc(C)c(C)c1)CN(Cc1ccccc1)CC2 |
| 599 | CC(=O)N(C)Cc1nc2ccccc2n1CCOc1ccccc1Cl |
| 960 | CCc1nc2c(NC(=O)CC3CCCCC3)cccn2n1 |
| 802 | CCN1CCN(c2ccc(NC(=O)c3cccc(Cl)c3)cn2)C1=O |
| 652 | COCCN1C(=O)Cc2ccccc2C1C(=O)NC(C)C (centres undefined) |
| 774 | O=C1NC2(CCN(C(=O)c3cc(F)cc(F)c3)CC2)Nc2cc(Cl)ccc21 |
| 905 | O=C(Cc1cccc(C(F)(F)F)c1)Nc1cccn2c(C3CCC3)nnc12 |
| 1330 | O=S(=O)(c1ccc2c(c1)CCCC2)N1CCCC1c1nc(-c2cccc(F)c2)no1 (centres undefined) |
| 685 | Cc1ccc2oc(N3CCN(C(=O)c4ccc(-c5noc(C(C)C)n5)cc4)CC3)nc2n1 |
| 673 | CSc1ccccc1C(=O)Nc1ccc2cn[nH]c2c1 |

| RP-LC retention time [s] | SMILES |
| --- | --- |
| 906 | Cc1ccc(S(=O)(=O)N2CCC3(CC2)OCCS3)s1 |
| 699 | CC(NC(=O)C1CCN(c2cnc(N3CCCC3)nc2)CC1)c1ccc(F)cc1 (centres undefined) |
| 578 | CC(NC(=O)CCNc1c(-c2ccc(F)cc2)nc2cnccn12)c1ccccn1 (centres undefined) |
| 659 | O=C1[C@H]2CN(Cc3cccc(Cl)c3)C[C@H]2C(=O)N1CCN1CCc2ccccc2C1 |
| 790 | COCCn1cc(CCNC(=O)Nc2ccc(C)cc2Cl)c2cccnc21 |
| 910 | Cc1nc(N2CCCC(C(=O)Nc3ccc(F)cc3)C2)c2c(C)c(C)oc2n1 (centres undefined) |
| 738 | CS(=O)(=O)c1ccc2nc(NCCc3cccs3)sc2c1 |
| 711 | CS(=O)(=O)c1cccc(-c2nnc(NC(=O)c3ccc(Cl)s3)o2)c1 |
| 901 | Cc1nc(C(=O)Nc2ccc(Cl)cc2)c(C)o1 |
| 556 | CCOc1ccc(CN2C[C@@H](CO)[C@H](c3ccncc3)C2)cc1OCC |
| 797 | Cc1cc(C)cc(NC(=O)Cn2ncc3c(c2=O)N(C2CC2)C(=O)CS3)c1 |
| 923 | CCCCOc1ccc(NC(=O)c2oc3ccc(C)cc3c2C)c2cccnc12 |
| 805 | CC1CCC2(CC1)NC(=O)N(CC(=O)N(C)c1ccccc1)C2=O (centres undefined) |
| 573 | CN(C)[C@@H]1CN(C(=O)CCc2c[nH]c3ccccc23)C[C@H]1CO |
| 1100 | Cc1cccc(NC(=O)N2CCCC2c2nc(-c3cccc(Cl)c3)no2)c1 (centres undefined) |
| 1310 | Cc1cccc(-c2noc(-c3ccc(N4CCN(c5ncccn5)CC4)nc3)n2)c1 |
| 1110 | Cc1csc(-c2cc(S(=O)(=O)NCCc3ccc(Cl)cc3)c(C)s2)n1 |
| 884 | Cc1cc2c(cc1S(=O)(=O)N1CCCC1C(=O)Nc1ccc(Cl)cc1F)OC(C)C(=O)N2 (centres undefined) |
| 810 | O=C(Nc1nc(-c2nc3ccccc3s2)cs1)c1ccno1 |
| 1190 | COC(=O)c1ccccc1Nc1c(-c2ccc(C)cc2)nc2cnc(Br)cn12 |
| 1000 | COc1ccc(N2CCN(S(=O)(=O)c3cc(-c4nnc(C5CCC5)o4)co3)CC2)cc1 |
| 830 | CCc1ccccc1N1C(=O)CN(S(C)(=O)=O)CC1(C)C(=O)NCc1ccc(F)cc1 (centres undefined) |

| RP-LC retention time [s] | SMILES |
| --- | --- |
| 689 | Cc1cc(OCC(=O)N2CCCCC2CCN2CCOCC2)ccc1Cl (centres undefined) |
| 610 | CCOC(=O)/C=C/c1c(C)[nH]c(=O)[nH]c1=O |
| 703 | COc1cccc(NC(=O)N2CC(c3nc(C)no3)C3(CCOCC3)C2)c1 (centres undefined) |
| 716 | Cc1cccc(-c2nn3c(N(C)C)cc(C)nc3c2C)c1 |
| 998 | O=C(Nc1ccc(F)c(F)c1)C1CCCN(S(=O)(=O)Cc2ccccc2)C1 (centres undefined) |
| 762 | CCNS(=O)(=O)c1ccc(-c2c(C)noc2C)cc1 |
| 830 | CCn1cc(-c2nc(-c3ccc(OC)cc3OC)no2)c(=O)c2cc(F)ccc21 |
| 661 | COc1ccc(S(=O)(=O)CCCC(=O)Nc2nccs2)cc1 |
| 594 | COc1nn(C)cc1-c1nnc(SCC(=O)NCc2ccc(F)cc2)n1C |
| 788 | COc1ccc(NC(=O)c2c(S(=O)(=O)Nc3ccc(Cl)cc3)n[nH]c2C)cc1OC |
| 769 | CN1c2cc(F)ccc2C(=O)NC12CCN(C(=O)c1cccc(F)c1)CC2 |
| 1230 | CC1CCN(S(=O)(=O)c2ccc(C(=O)Nc3nc4c(s3)Cc3ccccc3-4)cc2)CC1 |
| 865 | CCS(=O)(=O)c1ccc2c(c1)N(Cc1nc(-c3ccccc3)no1)C(=O)CO2 |
| 655 | COc1cc(C(=O)N2CCC3(CC2)NC(=O)c2ccc(F)cc2N3C)cc(OC)c1OC |
| 814 | O=C(CN1C(=O)C2CCCCN2c2ccc(C(=O)N3CCCC3)cc21)NC1CCCCC1 (centres undefined) |
| 719 | COc1nccnc1N1CCC(N(C)C(=O)Cc2ccsc2)C1 (centres undefined) |
| 621 | CC(Oc1ccccc1)C(=O)N1CCN(c2nc(CN3CCOCC3)cs2)CC1 (centres undefined) |
| 660 | Cn1ccc2c(cc(C(=O)NCc3ccc4c(c3)OCO4)n2C)c1=O |
| 608 | CN1C(=O)[C@H]2CN(Cc3cccc(Br)c3)C[C@H]2C1=O |
| 622 | CCn1nccc1C(=O)N1CCC(c2noc(N)c2C)CC1 |
| 574 | CN(C)S(=O)(=O)c1ccc(C(=O)Nc2sc3c(c2C#N)CC(C)(C)NC3(C)C)cc1 |

| SMILES | RP-LC retention time [s] |
| --- | --- |
| CC(C)Oc1cccnc1N(C)C1CCN(Cc2ccccc2)CC1 | 627 |
| CCCN(CCC)C1CCc2ccc(O)cc2C1 (centres undefined) | 640 |
